Experimental data as given in ChEMBL document CHEMBL4196024, “Discovery of 2,4,6-trisubstitued pyrido[3,4-d]pyrimidine derivatives as new EGFR-TKIs” (Eur J Med Chem, 2018).
Activity calls are given as the source filed them. The rule behind the calls is not given here.

How the values were obtained:
HCC827 [1] = test: Antiproliferative activity against human HCC827 cells harboring EGFR E746-A750 deletion mutant after 72 hrs by MTT assay; assay type: functional, cell-based; settings: HCC827, 72 h
NCI-H1975 = test: Antiproliferative activity against human NCI-H1975 cells harboring EGFR L858R/T790M double mutant after 72 hrs by MTT assay; assay type: functional, cell-based; settings: NCI-H1975, 72 h
A549 = test: Antiproliferative activity against human A549 cells harboring wild type EGFR after 72 hrs by MTT assay; assay type: cell-based; settings: A549, 72 h
[2] = target: Epidermal growth factor receptor (Homo sapiens, UniProt P00533); test: Inhibition of wild type EGFR (unknown origin) using Poly (Glu, Tyr) as substrate after 40 mins by kinase-Glo luminescence assay
Chain of Epidermal growth factor receptor (Homo sapiens, UniProt P00533) (P00533 whole entry): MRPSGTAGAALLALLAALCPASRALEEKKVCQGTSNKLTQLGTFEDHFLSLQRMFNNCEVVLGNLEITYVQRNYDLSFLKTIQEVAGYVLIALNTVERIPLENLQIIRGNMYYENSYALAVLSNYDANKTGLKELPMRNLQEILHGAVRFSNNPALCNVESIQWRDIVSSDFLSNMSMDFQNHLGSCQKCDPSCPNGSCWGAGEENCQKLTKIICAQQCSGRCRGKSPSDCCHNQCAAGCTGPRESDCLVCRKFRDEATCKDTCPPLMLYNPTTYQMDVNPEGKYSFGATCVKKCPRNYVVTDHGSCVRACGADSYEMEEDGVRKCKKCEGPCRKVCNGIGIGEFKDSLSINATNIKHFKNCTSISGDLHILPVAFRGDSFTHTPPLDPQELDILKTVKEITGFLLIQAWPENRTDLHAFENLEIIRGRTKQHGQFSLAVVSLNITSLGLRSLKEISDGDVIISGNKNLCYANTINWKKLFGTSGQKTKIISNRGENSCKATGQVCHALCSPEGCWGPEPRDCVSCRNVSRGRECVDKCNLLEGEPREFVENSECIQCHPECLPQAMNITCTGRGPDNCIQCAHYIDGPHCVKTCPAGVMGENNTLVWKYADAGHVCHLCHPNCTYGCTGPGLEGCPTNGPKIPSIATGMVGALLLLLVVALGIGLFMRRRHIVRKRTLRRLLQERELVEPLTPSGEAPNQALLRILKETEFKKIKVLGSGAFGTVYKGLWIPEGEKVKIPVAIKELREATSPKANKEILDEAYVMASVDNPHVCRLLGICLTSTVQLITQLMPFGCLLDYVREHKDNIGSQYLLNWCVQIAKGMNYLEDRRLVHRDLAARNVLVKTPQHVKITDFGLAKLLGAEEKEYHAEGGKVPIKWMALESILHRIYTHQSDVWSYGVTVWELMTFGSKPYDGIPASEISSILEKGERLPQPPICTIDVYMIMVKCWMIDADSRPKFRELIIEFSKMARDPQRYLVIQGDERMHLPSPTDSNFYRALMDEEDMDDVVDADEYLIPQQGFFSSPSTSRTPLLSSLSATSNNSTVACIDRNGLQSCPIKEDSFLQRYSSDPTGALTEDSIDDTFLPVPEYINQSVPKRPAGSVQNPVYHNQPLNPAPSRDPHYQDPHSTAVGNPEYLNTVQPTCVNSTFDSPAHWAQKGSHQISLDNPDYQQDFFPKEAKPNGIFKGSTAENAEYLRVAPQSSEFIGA

[3] = target: Epidermal growth factor receptor (Homo sapiens, UniProt P00533, L858R); test: Inhibition of wild type EGFR L858R mutant (unknown origin) using Poly (Glu, Tyr) as substrate after 40 mins by kinase-Glo luminescence assay
[4] = target: Epidermal growth factor receptor (Homo sapiens, UniProt P00533, L858R/T790M); test: Inhibition of wild type EGFR L858R/T790M double mutant (unknown origin) using Poly (Glu, Tyr) as substrate after 40 mins by kinase-Glo luminescence assay
Chain of Epidermal growth factor receptor (Homo sapiens, UniProt P00533, L858R/T790M) (P00533 25-1210 T790M/L858R limits assumed): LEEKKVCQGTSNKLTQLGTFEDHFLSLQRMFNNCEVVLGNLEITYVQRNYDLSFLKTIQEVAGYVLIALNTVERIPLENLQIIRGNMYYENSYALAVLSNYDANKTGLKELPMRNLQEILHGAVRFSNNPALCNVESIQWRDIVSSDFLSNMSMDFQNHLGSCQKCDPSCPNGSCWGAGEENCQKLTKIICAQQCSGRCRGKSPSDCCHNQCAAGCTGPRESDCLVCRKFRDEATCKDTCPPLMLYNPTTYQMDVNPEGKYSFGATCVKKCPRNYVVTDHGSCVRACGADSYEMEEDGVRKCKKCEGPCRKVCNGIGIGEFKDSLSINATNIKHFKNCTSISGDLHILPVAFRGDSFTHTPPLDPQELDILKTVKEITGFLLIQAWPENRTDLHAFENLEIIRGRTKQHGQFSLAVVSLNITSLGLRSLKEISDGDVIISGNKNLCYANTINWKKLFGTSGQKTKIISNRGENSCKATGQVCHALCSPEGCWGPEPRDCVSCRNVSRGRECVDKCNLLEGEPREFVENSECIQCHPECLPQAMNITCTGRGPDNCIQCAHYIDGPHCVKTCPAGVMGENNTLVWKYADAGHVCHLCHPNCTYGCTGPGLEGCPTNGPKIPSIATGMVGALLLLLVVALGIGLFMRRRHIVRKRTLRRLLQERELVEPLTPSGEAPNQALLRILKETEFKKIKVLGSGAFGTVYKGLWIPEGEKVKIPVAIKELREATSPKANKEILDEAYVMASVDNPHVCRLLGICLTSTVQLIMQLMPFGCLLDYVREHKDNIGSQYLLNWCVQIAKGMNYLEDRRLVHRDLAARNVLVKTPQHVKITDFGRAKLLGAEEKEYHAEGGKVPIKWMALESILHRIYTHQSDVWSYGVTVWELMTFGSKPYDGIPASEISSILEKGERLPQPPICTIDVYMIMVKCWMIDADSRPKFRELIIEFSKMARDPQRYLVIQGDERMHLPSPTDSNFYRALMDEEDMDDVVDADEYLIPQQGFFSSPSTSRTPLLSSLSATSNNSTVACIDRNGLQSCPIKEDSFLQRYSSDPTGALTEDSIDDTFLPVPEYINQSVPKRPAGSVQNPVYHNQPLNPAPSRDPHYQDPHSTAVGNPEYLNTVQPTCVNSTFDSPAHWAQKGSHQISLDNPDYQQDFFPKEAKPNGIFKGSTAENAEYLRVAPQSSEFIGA

[5] = target: Epidermal growth factor receptor (Homo sapiens, UniProt P00533, C797S/L858R/T790M); test: Inhibition of wild type EGFR L858R/T790M/C797S mutant (unknown origin) using Poly (Glu, Tyr) as substrate after 40 mins by kinase-Glo luminescence assay
Chain of Epidermal growth factor receptor (Homo sapiens, UniProt P00533, C797S/L858R/T790M) (P00533 25-1210 T790M/C797S/L858R limits assumed): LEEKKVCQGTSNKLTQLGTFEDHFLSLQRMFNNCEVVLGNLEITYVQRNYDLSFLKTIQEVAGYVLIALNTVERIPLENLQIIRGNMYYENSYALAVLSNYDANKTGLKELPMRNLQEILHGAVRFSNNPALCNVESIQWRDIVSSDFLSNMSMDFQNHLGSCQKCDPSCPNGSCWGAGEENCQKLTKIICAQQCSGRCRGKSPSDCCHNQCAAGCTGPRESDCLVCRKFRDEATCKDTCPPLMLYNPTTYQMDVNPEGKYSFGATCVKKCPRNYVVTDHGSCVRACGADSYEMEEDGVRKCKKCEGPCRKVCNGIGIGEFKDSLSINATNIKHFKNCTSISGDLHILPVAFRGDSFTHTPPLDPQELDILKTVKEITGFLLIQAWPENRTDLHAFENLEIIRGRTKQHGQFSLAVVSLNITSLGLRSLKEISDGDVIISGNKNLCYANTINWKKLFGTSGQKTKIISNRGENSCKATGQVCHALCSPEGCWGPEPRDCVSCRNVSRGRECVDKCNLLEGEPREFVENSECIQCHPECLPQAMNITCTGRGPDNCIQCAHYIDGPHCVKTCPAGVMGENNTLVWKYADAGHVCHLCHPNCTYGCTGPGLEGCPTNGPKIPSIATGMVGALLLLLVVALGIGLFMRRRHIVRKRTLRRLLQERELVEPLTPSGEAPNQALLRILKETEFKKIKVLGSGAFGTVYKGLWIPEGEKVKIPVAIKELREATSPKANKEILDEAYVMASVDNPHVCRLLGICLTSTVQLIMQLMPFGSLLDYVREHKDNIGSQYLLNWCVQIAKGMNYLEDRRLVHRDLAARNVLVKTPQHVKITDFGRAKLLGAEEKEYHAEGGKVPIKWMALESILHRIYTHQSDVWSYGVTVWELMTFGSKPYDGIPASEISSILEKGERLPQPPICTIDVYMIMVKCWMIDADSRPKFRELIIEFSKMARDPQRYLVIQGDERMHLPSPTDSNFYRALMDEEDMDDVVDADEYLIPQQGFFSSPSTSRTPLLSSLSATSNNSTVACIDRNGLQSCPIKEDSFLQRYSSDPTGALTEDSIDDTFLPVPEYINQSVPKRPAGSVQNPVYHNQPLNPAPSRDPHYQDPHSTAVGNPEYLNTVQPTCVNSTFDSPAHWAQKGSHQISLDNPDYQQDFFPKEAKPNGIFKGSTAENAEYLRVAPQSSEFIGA

HCC827 [6] = test: Induction of apoptosis in human HCC827 cells harboring EGFR E746-A750 deletion mutant assessed as early apoptotic cells at 3 uM after 24 hrs by Annexin V-FITC/propidium iodide staining based flow cytometry (reference value: 1.34%); assay type: functional
HCC827 [7] = test: Induction of apoptosis in human HCC827 cells harboring EGFR E746-A750 deletion mutant assessed as late apoptotic cells at 3 uM after 24 hrs by Annexin V-FITC/propidium iodide staining based flow cytometry (reference value: 27.14%); assay type: functional
[8] = test system: Epidermal growth factor receptor (Homo sapiens), P00533 [UNDEFINED MUTATION]; test: Inhibition of EGFR E746-A750 deletion mutant in human HCC827 cells assessed as reduction in EGFR phosphorylation after 8 hrs by Western blot analysis; assay type: cell-based
Chain of Epidermal growth factor receptor (Homo sapiens), P00533 [UNDEFINED MUTATION] (P00533 whole entry, looked up, stated change not applied): as the sequence (P00533 whole entry) above

[9] = test system: Epidermal growth factor receptor (Homo sapiens), P00533 [UNDEFINED MUTATION]; test: Inhibition of EGFR E746-A750 deletion mutant in human HCC827 cells assessed as reduction in EGFR phosphorylation at 3.33 uM after 8 hrs by Western blot analysis; assay type: cell-based
[10] = test system: Epidermal growth factor receptor (Homo sapiens), P00533 [UNDEFINED MUTATION]; test: Inhibition of EGFR E746-A750 deletion mutant in human HCC827 cells assessed as reduction in ERK phosphorylation at 3.33 uM after 8 hrs by Western blot analysis; assay type: cell-based

Row | Structure (SMILES) | IC50 (HCC827 [1]) [nM] | IC50 (NCI-H1975) [nM] | IC50 (A549) [nM] | IC50 [5] [nM] | further results
1 | CN1CCN(c2ccc(Nc3cc4c(N5CCCC5)nc(Nc5cccc(F)c5)nc4cn3)nc2)CC1 | 1010 | > 10000 | > 10000 | – | –
2 | CN(C)C1CCN(c2ccc(Nc3cc4c(N5CCOCC5)nc(OC5CCOCC5)nc4cn3)nc2)CC1 | 6910 | > 10000 | – | – | –
3 | Cn1cc(Nc2cc3c(N4CCOCC4)nc(Nc4ccccc4)nc3cn2)cn1 | > 10000 | – | – | – | –
4 | CN1CCN(c2ccc(Nc3cc4c(N5CCCC5)nc(Nc5ccc(F)c(Cl)c5)nc4cn3)nc2)CC1 | 1390 | 520 | – | – | –
5 | CN(C)CCN(C)c1ccc(Nc2cc3c(N4CCCC4)nc(Nc4ccccc4)nc3cn2)nc1 | 1890 | 820 | 1300 | – | –
6 | CN1CCN(c2ccc(Nc3cc4c(N5CCOCC5)nc(Nc5cccnc5)nc4cn3)nc2)CC1 | 5430 | – | – | – | –
7 | CN1CCN(c2ccc(Nc3cc4c(N(C)C)nc(Nc5ccccc5)nc4cn3)cc2)CC1 | > 10000 | – | – | – | –
8 | CN(C)C1CCN(c2ccc(Nc3cc4c(N5CCOCC5)nc(Nc5ccccn5)nc4cn3)nc2)CC1 | 1660 | 2650 | – | – | –
9 | CN(C)C1CCN(c2ccc(Nc3cc4c(N5CCOCC5)nc(NCc5ccccn5)nc4cn3)nc2)CC1 | 7900 | > 10000 | – | – | –
10 | CN1CCN(c2ccc(Nc3cc4c(N5CCCC5)nc(Nc5cnn(C)c5)nc4cn3)nc2)CC1 | 3660 | 2170 | – | – | –
11 | CN(C)C1CCN(c2ccc(Nc3cc4c(N5CCOCC5)nc(NCc5ccccc5)nc4cn3)nc2)CC1 | 1640 | 7160 | – | – | –
12 | C=CC(=O)Nc1cc(Nc2nccc(-c3cn(C)c4ccccc34)n2)c(OC)cc1N(C)CCN(C)C [OSIMERTINIB] | 27 | – | – | – | Activity (HCC827 [6]): 8.28%; Activity (HCC827 [7]): 68.1%
13 | CN1CCN(c2ccc(Nc3cc4c(N5CCOCC5)nc(Nc5cccc(C(F)(F)F)c5)nc4cn3)nc2)CC1 | > 10000 | – | – | – | –
14 | CN(C)C1CCN(c2ccc(Nc3cc4c(N5CCOCC5)nc(OCC5CCOCC5)nc4cn3)nc2)CC1 | > 10000 | > 10000 | – | – | –
15 | CN(C)C1CCN(c2ccc(Nc3cc4c(N5CCOCC5)nc(Oc5cccnc5)nc4cn3)nc2)CC1 | 2510 | > 10000 | – | – | –
16 | CN1CCN(c2ccc(Nc3cc4c(N(C)C)nc(Nc5ccccc5)nc4cn3)nc2)CC1 | 1160 | 7350 | > 10000 | – | –
17 | CN(C)C1CCN(c2ccc(Nc3cc4c(N5CCOCC5)nc(Nc5cccnc5)nc4cn3)nc2)CC1 | 1820 | 12400 | – | – | –
18 | CN1CCN(c2ccc(Nc3cc4c(N5CCCC5)nc(Nc5ccccc5)nc4cn3)cc2)CC1 | > 10000 | – | – | – | –
19 | CN(C)C1CCN(c2ccc(Nc3cc4c(N5CCOCC5)nc(NCc5cccnc5)nc4cn3)nc2)CC1 | > 10000 | – | – | – | –
20 | CN1CCN(c2ccc(Nc3cc4c(N5CCCC5)nc(Nc5ccccc5)nc4cn3)nc2)CC1 | 1350 | 2470 | 8700 | – | IC50 [2]: 4.4 nM; IC50 [3]: 2.3 nM; IC50 [4]: 85 nM

More lines, main results first:

Row | IC50 (HCC827 [1]) [nM] | IC50 (NCI-H1975) [nM] | IC50 (A549) [nM] | IC50 [5] [nM] | Structure (SMILES) | further results
21 | 64 | 420 | 690 | 82.9 | CN(C)C1CCN(c2ccc(Nc3cc4c(N5CCC(CO)CC5)nc(Nc5ccccc5)nc4cn3)nc2)CC1 | IC50 [2]: 2.1 nM; IC50 [3]: 3.2 nM; IC50 [4]: 44.1 nM
22 | 310 | 1670 | 530 | 28 | CN(C)C1CCN(c2ccc(Nc3cc4c(N5CCOCC5)nc(Nc5ccc(F)cc5)nc4cn3)nc2)CC1 | IC50 [2]: 1.5 nM; IC50 [3]: 2.5 nM; IC50 [4]: 28.8 nM
23 | 350 | 980 | 1140 | 53.6 | CN(C)C1CCN(c2ccc(Nc3cc4c(N5CCOCC5)nc(Nc5ccc(F)cc5F)nc4cn3)nc2)CC1 | IC50 [2]: 0.9 nM; IC50 [3]: 2.1 nM; IC50 [4]: 30 nM
24 | 200 | 1280 | 1020 | – | CN1CCN(c2ccc(Nc3cc4c(N5CCOCC5)nc(Nc5ccccc5)nc4cn3)nc2)CC1 | –
25 | 240 | 1020 | 540 | 15 | CN(C)C1CCN(c2ccc(Nc3cc4c(N5CCCCC5)nc(Nc5ccccc5)nc4cn3)nc2)CC1 | IC50 [2]: 0.9 nM; IC50 [3]: 4.9 nM; IC50 [4]: 23.2 nM
26 | 450 | 900 | 830 | 24.7 | CN(C)CCN(C)c1nc(Nc2ccc(F)cc2)nc2cnc(Nc3ccc(N4CCC(N(C)C)CC4)cn3)cc12 | –
27 | 110 | 680 | 550 | 54.1 | CN(C)C1CCN(c2ccc(Nc3cc4c(N5CCOCC5)nc(Nc5ccccc5)nc4cn3)nc2)CC1 | IC50 [2]: 4.6 nM; IC50 [3]: 3.9 nM; IC50 [4]: 57.7 nM; Activity (HCC827 [6]): 9.32%; Activity (HCC827 [7]): 64.85%
28 | 44 | 400 | 1060 | 7.2 | CN(C)C1CCN(c2ccc(Nc3cc4c(N5CCC(CO)CC5)nc(Nc5ccc(F)cc5)nc4cn3)nc2)CC1 | IC50 [2]: 10.4 nM; IC50 [3]: 1.1 nM; IC50 [4]: 34 nM; inhibition [8]: Dose-dependent effect; inhibition [9]: inactive; inhibition [10]: inactive; Activity (HCC827 [6]): 6.21%; Activity (HCC827 [7]): 74.26%
29 | 390 | 1160 | 970 | – | CN(C)C1CCN(c2ccc(Nc3cc4c(N5CCOCC5)nc(Nc5ccc(F)c(Cl)c5)nc4cn3)nc2)CC1 | –
30 | 890 | 680 | 740 | – | CN(C)C1CCN(c2ccc(Nc3cc4c(N5CCOCC5)nc(Nc5cccc(C(F)(F)F)c5)nc4cn3)nc2)CC1 | –
31 | 130 | 550 | 600 | 34.8 | CN1CCN(c2nc(Nc3ccc(F)cc3)nc3cnc(Nc4ccc(N5CCC(N(C)C)CC5)cn4)cc23)CC1 | –
32 | 270 | 2050 | 1330 | 23 | CN1CCN(c2ccc(Nc3cc4c(N5CCCCC5)nc(Nc5ccccc5)nc4cn3)nc2)CC1 | IC50 [2]: 1.1 nM; IC50 [3]: 1.1 nM; IC50 [4]: 45 nM
33 | 80 | 300 | 420 | 51.9 | CN(CCCO)c1nc(Nc2ccc(F)cc2)nc2cnc(Nc3ccc(N4CCC(N(C)C)CC4)cn3)cc12 | –
34 | 650 | 790 | 740 | 62.2 | CN(C)C1CCN(c2ccc(Nc3cc4c(N5CCCC5)nc(Nc5ccccc5)nc4cn3)nc2)CC1 | IC50 [2]: 5.5 nM; IC50 [3]: 1.6 nM; IC50 [4]: 65.6 nM
35 | 240 | 590 | 690 | 51.3 | CN(CCO)c1nc(Nc2ccccc2)nc2cnc(Nc3ccc(N4CCC(N(C)C)CC4)cn3)cc12 | –
